The values below come from patent US20100226919A1, “Antitumoral Treatments” (Pharma Mar, S.A., priority 2007, published 2010).

A word on the IC50: it is the concentration needed to halve the response being measured.

Like-named read-outs stand apart in the source and are kept apart here. Bounds are passed on as bounds.

Experiment [1] deals with H3255 cells. The settings on record: only two of the nine cell lines sensitive; cited from earlier work.
In experiment [2] the test system is H322 cells. The following applies: only two of the nine cell lines sensitive; cited from earlier work.
In experiment [3] the test system is H322 cells. The settings on record: from Ling et al., Mol Pharmacol 2007; cited from earlier work.
Experiment [4] concerns H460 cells. The following applies: read-out: IC50 (50% cell growth inhibition); H460, 72 h exposure; resistant cell lines. From the text:
(§1) Nine human NSCLC cell lines that were characterized for EGFR, Ras, and p53 gene expression and sensitivity to a variety of antitumor agents (paclitaxel, premetrexed, erlotinib, etc.) were used as models to examine the cell sensitivity to PM02734 trifluoroacetate salt. These NSCLC cell lines are the following: H322, A549, H661, H1299, H1975 with L858R and T790M EGFR double mutation, H358, H460, H1650 with L858R EGFR mutation, and H3255 with […]. […] H3255 cell line is a gift from Dr. Pasi A. Jänne (Dana-Farber Cancer Institute, Boston Mass.).
(§2) Exponentially growing cells (1×10^5/ml) were plated in 96-well plates and allowed to attach overnight. Cells were exposed to various concentrations of PM02734 trifluoroacetate salt at 37° C. for 72 hours.
(§3) H322, A549, H1299 and H460 cells were plated in 96-well plates as described above. […] Enzyme Regul. […] The synergistic effects (CI index) were analyzed by software CalcuSyn.

In experiment [5] the test system is H322 cells. The settings on record: read-out: IC50 (50% cell growth inhibition); H322, 72 h exposure; range given for four highly sensitive cell lines.
From the text: as §1, §2, §3

For experiment [6], the system named is A549 cells. The following applies: read-out: IC50 (50% cell growth inhibition); A549, 72 h exposure; range given for four highly sensitive cell lines.
From the text: as §1, §2, §3

For experiment [7], the system named is H1299 cells. The settings on record: read-out: IC50 (50% cell growth inhibition); H1299, 72 h exposure; range given for two cell lines of intermediate sensitivity.
From the text: as §1, §2, §3

The test system of experiment [8] is H1975 cells. The following applies: read-out: IC50 (50% cell growth inhibition); H1975 (double EGFR mutant), 72 h exposure; range given for two cell lines of intermediate sensitivity.
From the text: as §1, §2

Experiment [9] deals with H358 cells. The settings on record: read-out: IC50 (50% cell growth inhibition); H358, 72 h exposure; resistant cell lines.
From the text: as §1, §2

Experiment [10] deals with H661 cells. The settings on record: read-out: IC50 (50% cell growth inhibition); H661, 72 h exposure; range given for four highly sensitive cell lines.
From the text: as §1, §2

The test system of experiment [11] is H1650 cells. The settings on record: read-out: IC50 (50% cell growth inhibition); H1650 (EGFR mutant), 72 h exposure; resistant cell lines.
From the text: as §1, §2

Experiment [12] concerns H3255 cells. The settings on record: read-out: IC50 (50% cell growth inhibition); H3255 (EGFR mutant), 72 h exposure; range given for four highly sensitive cell lines.
From the text: as §1, §2

Experiment [13] concerns H322 cells. Description: Cell-cycle progression and apoptosis by propidium iodide FACS analysis. Format: cell-based, human. The settings on record: H322, 0.5 μM, 0, 3, 6 and 24 hours. The method, then: H322 cells were plated in a 6-well plate and incubated with RPMI1640 medium with 10% fetal bovine serum at 37° C. overnight. […] At the indicated time point, cells were harvested by trypsinization and fixed with cold 75% ethanol at 4° C. overnight. Cells were incubated with 1 μg/ml of propidium iodide and 5 μg/ml of RNase I at room temperature for 3 hours. The cell-cycle distribution and apoptotic cells (Sub-G0/G1) were measured by FACS analysis (BD Biosciences, San Joes, Calif.).
In general terms: Flow cytometry measures light scatter and fluorescence of single cells or particles in a stream.

Experiment [14] deals with human A549 NSCLC cell line. The experiment can be described thus: A549 subcutaneous xenograft model in nude mice. The following applies: PM02734 0.1 mg/kg i.v. 3 times per week for 2 weeks; erlotinib 50 mg/kg p.o. 5 times per week for 2 weeks; p<0.001. Format: in vivo. On the procedure: PM02734 was administered in its trifluoroacetate salt using water for injection as vehicle. Erlotinib was administered using sterile water as vehicle.
Nude mice (NUR-NU-F-M, female, 5-6 weeks old, Taconic Farm, Germantown N.Y.) were subcutaneously implanted with the human A549 NSCLC cell line (4.5×10^6 cells/mouse). Seven days later, mice were randomly divided into 4 groups with 5 mice per group. One group of mice received the combination treatment (PM02734: 0.1 mg/kg×3 times per week (on days 1, 3, and 5) for 2 weeks, i.v.; erlotinib: 50 mg/kg×5 times per week (on days 1, 2, 3, 4, and 5) for 2 weeks, p.o.). In this group erlotinib was given first followed two hours later by the administration of PM02734. The other groups were treated with PM02734 alone (0.1 mg/kg×3 times per week (on days 1, 3, and 5) for 2 weeks, i.v.), erlotinib alone (50 mg/kg×5 times per week (on days 1, 2, 3, 4, and 5) for 2 weeks, p.o.) or without treatment. Tumor size was measured twice a week. Tumor volume was calculated using the following equation: Tumor volume (mm^3)=0.5×longer diameter×(shorter diameter)^2 in millimeter. The experiment was terminated when ≧50% mice had tumors larger than 15 mm (i.e., the longer diameter>15 mm).

Experiment [15] concerns non-small cell lung (A549). The settings on record: cited from earlier work.
Experiment [16] concerns mouse leukemia (P388). The settings on record: cited from earlier work.
For experiment [17], the system named is colon (HT-29). The settings on record: cited from earlier work.

Regarding `C#Cc1cccc(Nc2ncnc3cc(OCCOC)c(OCCOC)cc23)c1` [erlotinib, Erlotinib], the “cell sensitivity to erlotinib” value in experiment [1] and in [2] was “sensitive” each time. Moreover, in [3], the “effect on cell-cycle progression” value is given as “G1/S phase arrest”.

Regarding `C/C=C1\NC(=O)[C@H](Cc2ccccc2)NC(=O)[C@@H](C(C)C)NC(=O)[C@@H]([C@@H](C)CC)NC(=O)[C@H](NC(=O)[C@H](NC(=O)[C@H](CCCN)NC(=O)[C@H]2CCCN2C(=O)[C@H](NC(=O)[C@@H](NC(=O)[C@@H](NC(=O)[C@H](NC(=O)CC[C@@H](C)CC)C(C)C)[C@@H](C)O)C(C)C)C(C)C)[C@@H](C)CC)[C@@H](C)OC(=O)[C@H](C(C)C)NC1=O` [PM02734, (4S)-MeHex-D-Val-L-Thr-L-Val-D-Val-D-Pro-L-Orn-D-allo-Ile-cyclo(D-allo-Thr-D-allo-Ile-D-Val-L-Phe-Z-Dhb-L-Val)], the half-inhibitory concentration (IC50) in experiment [4] is > 5000 nM; in [5], 300 to 1250 nM; in experiment [6] it was 300 to 1250 nM; in experiment [7] it was 2000 to 2800 nM; in [8], 2000 to 2800 nM; in experiment [9], > 5000 nM. In addition, the half-inhibitory concentration (IC50) in [10] was 300 to 1250 nM; in [11], > 5000 nM; in experiment [12], 300 to 1250 nM. In addition, the “apoptotic cells (Sub-G0/G1)” value in [13] is on record as “apoptotic cell death in a time-dependent manner”. In addition, in experiment [13], the “effect on cell-cycle progression” value is “cell cycle arrest at S-phase”. In addition, in [14], the “% treated vs. control tumor volume ratio (% T/C)” value worked out at 74%.

As for Kahalalide F, the “in vitro antitumor activity” value in experiment [15], in [16] and in experiment [17] was “micromolar activity” in each case.
